According to article PMC7710018, “Restoration of motor learning in a mouse model of Rett syndrome following long-term treatment with a novel small-molecule activator of TrkB” (Disease Models & Mechanisms, 2020):
Values after ≈ are worked out from the molar mass of the structure shown. “Also recorded” adds a separate entry of the source.

Key:
TrkB = assay: Shc adaptor protein recruitment to TrkB in HCEMs (IP/western blot); assay type: cell-based, human; settings: 1 h, compounds 1000 nM, BDNF 0.7 nM
Excerpt: Fig. 2. […] Scale bar: 10 μm. […] Scale bar: 10 μm.

hERG channels = biological target: T1, hERG channels (Homo sapiens, UniProt Q12809); assay: hERG testing (Cerep); assay type: cell-based; settings: 0.1, 1 and 10 µM; >50% inhibition of the tail current = significant
T1 construct: Cerep, Inc. (contract screen)
Procedure: (§1) To evaluate the relative binding specificity of LM22A-4 ([Massa et al., 2010]) and PTX-BD4-3, binding to a broad range of 55 pharmacologically relevant receptors, including numerous neurotransmitter and G-protein coupled receptors was assessed using standard radioligand competition binding assays (ExpressSProfile) performed by Cerep, Inc. (Seattle, WA, USA). In addition, ADME-Tox analysis was performed by Cerep, Inc. All experimental conditions are described on the Cerep website (www.cerep.fr).
(§2) Aqueous Human CYP inhibition (10µM) AMES hERG solubility hepatocyte DNA testing
(§3) (µM) metabolic mutagenesis
(§4) PTX‐BD4‐3 200 >60 negative negative negative
(§5) Table S2. Solubility, metabolism and toxicity screens for LM22A-4 and PTX-BD4-3. Standardized assays of solubility, metabolic stability and in vitro toxicity were performed to further evaluate the potential of PTX-BD4-3 as a lead candidate molecule for the treatment of Rett syndrome, and to compare its profile to that of the parent compound LM22A-4. Aqueous solubility of both compounds, which is used as a surrogate measure of absorption, was at or near the assay maximum of 200 µM. The metabolic stability of both compounds at 10 µM was evaluated at 5 different time points in […] and found to be >60 min, indicating favorable stability. […]

[1] = Aqueous solubility (Cerep); assay type: physicochemical; settings: assay maximum 200 µM
Procedure: as §1, §2, §3, §4, §5

[2] = test system: E16 mouse hippocampal neurons; assay: Hippocampal neuron survival (ViaLight assay and Tuj1-positive cell counts); assay type: cell-based; settings: for neurotrophic activity in the presence of function-blocking anti-TrkB^ECD antibody: compounds 1000 nM, BDNF 20 ng/ml, vs control antibody
Excerpt: To further confirm that PTX-BD4-3 promotes biologically relevant activity through TrkB, we examined the effect of PTX-BD4-3 on survival of cultured hippocampal neurons, using two different methods (Fig. 3A-C). […] It would be expected that although there is a correlation between survival status and mitochondrial metabolic status, one could have some degree of variability in metabolic function for a given level of cell survival. […] Because the plateau effect of PTX-BD4-3 on survival was observed between 500 nM and 1000 nM, we chose 1000 nM as a standard concentration for subsequent mechanistic studies.
Fig. 3. […] (A) Fluorescence photomicrographs (original magnification, ×40) of Tuj1-immunostained E16 mouse hippocampal neuronal cultures treated with culture medium (CM) alone, BDNF, LM22A-4 or PTX-BD4-3 for 48 h. Scale bar: 10 μm. (B) Neuron survival dose-response curves for LM22A-4 and PTX-BD4-3 were generated using the ViaLight assay; data were normalized to survival achieved with 20 ng/ml (∼0.7 nM) BDNF and compared with wells receiving culture medium medium (CM) alone. n=10-32 wells per group derived from four to five independent experiments. (C) Survival analysis of hippocampal neurons treated with either 20 ng/ml BDNF, 500 nM or 1000 nM LM22A-4 or 500 nM or 1000 nM PTX-BD4-3 for 48 h. Tuj1-positive cells counts were normalized to the survival achieved with BDNF and compared with wells treated with […]. n=32-40 wells per group derived from six independent experiments. Statistical significance in B and C was determined by one-way ANOVA with Dunnett's post hoc multiple comparison tests. *P≤0.05, ^§P≤0.001 compared to control (CM). (D) Survival of hippocampal neurons treated with CM, 20ng/ml BDNF (B), 1000 nM LM22A-4 or 1000 nM PTX-BD4-3 with or without anti-TrkB antibody (Bab) or non-immune serum (non). n=37-42 wells per group derived from five independent experiments. *P≤0.05, **P≤0.01, ***P≤0.001 (non vs Bab), Mann-Whitney test; *P≤0.05, ^ψP≤0.01, ^§P≤0.001 (compared to CM), one-way ANOVA with Dunnett's post hoc multiple comparison test.
Hippocampal neuron cultures were prepared from E16 CF1 mouse fetuses as described previously ([Yang et al., 2006]). Under the low-density conditions used here, neuronal survival is dependent, in part, on addition of exogenous neurotrophins ([Yang et al., 2008]; [Walter et al., 2011]). LM22A-4 and PTX-BD4-3 were dissolved in water at a stock concentration of 10 mM prior to dilution (1:10,000) in culture medium. Cell survival following a 48-h exposure to BDNF, LM22A-4 or PTX-BD4-3 was quantified by either counting β-tubulin III-positive cell bodies ([Massa et al., 2006]; [Walter et al., 2011]) or by the ViaLight Assay described above.

8 different CYP enzymes = assay: CYP inhibition (Cerep); assay type: in vitro ADME; settings: 10µM
Procedure: as §1, §2, §3, §4
(§6) Table S2. Solubility, metabolism and toxicity screens for LM22A-4 […]
(§7) and PTX-BD4-3. […]
Both compounds were negative in 3 different assays of in vitro toxicity; inhibition of 8 different CYP enzymes at 10 µM, DNA mutagenesis in 4 different strains of Salmonella typhimurium at 5, 10, 50 and 100 µM and cardiac toxicity, measured by […] of hERG channels at 0.1, 1 and 10 µM, where >50% inhibition of the tail current indicates significant cardiac toxicity.
(§8) (also on this page, place not known: Disease Models & Mechanisms: doi:10.1242/dmm.044685: Supplementary information Disease Models & Mechanisms • Supplementary information)

[3] = test system: 4 different strains of Salmonella typhimurium; assay: AMES DNA mutagenesis (Cerep); assay type: cell-based; settings: 5, 10, 50 and 100 µM; 4 strains
Procedure: as §1, §2, §3, §4, §5

[4] = Metabolic stability (Cerep); assay type: in vitro ADME, human; settings: 10 µM, 5 time points
Procedure: as §1, §2, §3, §4, §6, §7, §8

T1 sequence (Q12809 whole entry): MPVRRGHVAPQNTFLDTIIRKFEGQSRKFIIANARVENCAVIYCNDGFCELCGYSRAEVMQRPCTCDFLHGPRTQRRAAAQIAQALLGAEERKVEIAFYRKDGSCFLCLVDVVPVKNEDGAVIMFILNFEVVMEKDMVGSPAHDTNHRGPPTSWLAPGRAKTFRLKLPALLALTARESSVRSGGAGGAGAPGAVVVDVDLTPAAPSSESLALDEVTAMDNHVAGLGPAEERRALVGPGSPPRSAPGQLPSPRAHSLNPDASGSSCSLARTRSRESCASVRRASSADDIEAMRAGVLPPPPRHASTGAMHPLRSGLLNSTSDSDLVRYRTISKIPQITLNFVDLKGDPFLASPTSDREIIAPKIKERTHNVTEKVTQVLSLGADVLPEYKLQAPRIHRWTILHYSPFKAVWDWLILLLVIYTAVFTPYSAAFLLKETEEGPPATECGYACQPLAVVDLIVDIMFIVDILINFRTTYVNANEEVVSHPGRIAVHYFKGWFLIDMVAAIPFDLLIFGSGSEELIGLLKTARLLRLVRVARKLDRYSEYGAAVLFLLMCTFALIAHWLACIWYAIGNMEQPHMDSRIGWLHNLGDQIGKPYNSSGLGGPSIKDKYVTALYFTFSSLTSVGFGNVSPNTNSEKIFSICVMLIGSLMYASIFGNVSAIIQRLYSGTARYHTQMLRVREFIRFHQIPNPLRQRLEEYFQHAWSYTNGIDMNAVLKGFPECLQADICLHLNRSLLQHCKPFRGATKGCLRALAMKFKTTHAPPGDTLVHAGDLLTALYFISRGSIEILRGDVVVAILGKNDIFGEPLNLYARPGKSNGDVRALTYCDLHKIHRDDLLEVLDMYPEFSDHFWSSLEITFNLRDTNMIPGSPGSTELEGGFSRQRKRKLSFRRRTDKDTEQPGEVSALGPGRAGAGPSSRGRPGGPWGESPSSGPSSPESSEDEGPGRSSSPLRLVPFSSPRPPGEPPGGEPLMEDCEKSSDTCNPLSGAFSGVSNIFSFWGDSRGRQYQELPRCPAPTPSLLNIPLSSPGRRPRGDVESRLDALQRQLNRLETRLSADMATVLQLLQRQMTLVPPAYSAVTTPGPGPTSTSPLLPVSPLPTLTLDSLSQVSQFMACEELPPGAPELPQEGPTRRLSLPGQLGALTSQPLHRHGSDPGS

Row | Structure (SMILES) | Shc recruitment to TrkB (ratio of Shc to TrkB) (TrkB) | hERG testing (cardiac toxicity) (hERG channels) | solubility [1] [µM] | neurotrophic activity in the presence of function-blocking anti-TrkB^ECD antibody [2] | CYP inhibition (8 different CYP enzymes) | AMES DNA mutagenesis [3] | Human hepatocyte metabolic stability [4] [min] | maximum levels of neurotrophic activity ([2]; 48 h, ViaLight and Tuj1 counts, normalized to 20 ng/ml BDNF) | EC50 ([2]; Mus musculus, Hippocampal neuron, 48 h, ViaLight and Tuj1 counts, read-out: half-maximal effective concentration (EC50), neurotrophic activity) [nM]
1 | O=C(NCCO)c1cc(C(=O)NCCO)cc(C(=O)NCCO)c1 [LM22A-4, N,N′,N′′-tris(2-hydroxyethyl)-1,3,5-benzenetricarboxamide, reference compound] | promoted Shc recruitment to TrkB | negative | 180 (≈ 61.2 µg/mL) | reduction | negative | negative | > 60 |  | 
2 | COCCN(C)C(=O)c1cc(C(=O)N(C)CCOC)cc(C(=O)N(C)CCOC)c1 [PTX-BD4-3, benzene-1,3,5-tricarboxylic acid tris-[(2-methoxy-ethyl)-methyl-amide]] | promoted Shc recruitment to TrkB | negative; also recorded: no activity | 200 (≈ 84.7 µg/mL) | reduction | negative | negative; also recorded: no activity | > 60 | 80-100 % of that of BDNF | 300 to 500
